Experimental data published in ChEMBL document CHEMBL1909046, “DrugMatrix in vitro pharmacology data”.

Tests used:
[1] = target: T1, Neuropeptide Y receptor type 1 (Homo sapiens, UniProt P25929); type: cell membranes, Membrane; conditions: sk-n-mc; further: in other assays of this panel Not Active means under 50% inhibition at 10 µM
T1 sequence (P25929 whole entry): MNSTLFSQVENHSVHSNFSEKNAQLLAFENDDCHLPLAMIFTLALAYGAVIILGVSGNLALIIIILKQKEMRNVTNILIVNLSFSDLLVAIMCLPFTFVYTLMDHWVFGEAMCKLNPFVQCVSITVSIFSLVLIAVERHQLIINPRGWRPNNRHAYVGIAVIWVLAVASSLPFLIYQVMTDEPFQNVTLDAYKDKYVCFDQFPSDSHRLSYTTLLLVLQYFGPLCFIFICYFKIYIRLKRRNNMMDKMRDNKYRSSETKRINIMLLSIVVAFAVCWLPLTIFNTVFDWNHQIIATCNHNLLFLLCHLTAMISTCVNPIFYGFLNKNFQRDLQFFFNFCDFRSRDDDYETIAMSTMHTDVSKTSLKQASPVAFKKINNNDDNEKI

[2] = target: Aldo-keto reductase family 1 member B1 (Rattus norvegicus, UniProt P07943); test: biochemical; type: tissue-based, Lens of camera-type eye;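 further: inhibition of aldose reductase enzyme activity, measured with DL-glyceraldehyde as the substrate; in other assays of this panel Not Active means under 50% inhibition at 10 µM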
[3] = target: T2, Alpha-2C adrenergic receptor (Homo sapiens, UniProt P18825); test: DRUGMATRIX: Adrenergic Alpha-2C radioligand binding (ligand: [3H] MK-912); type: cell membranes, Sf9, Membrane; conditions: sf9
T2 sequence (P18825 whole entry): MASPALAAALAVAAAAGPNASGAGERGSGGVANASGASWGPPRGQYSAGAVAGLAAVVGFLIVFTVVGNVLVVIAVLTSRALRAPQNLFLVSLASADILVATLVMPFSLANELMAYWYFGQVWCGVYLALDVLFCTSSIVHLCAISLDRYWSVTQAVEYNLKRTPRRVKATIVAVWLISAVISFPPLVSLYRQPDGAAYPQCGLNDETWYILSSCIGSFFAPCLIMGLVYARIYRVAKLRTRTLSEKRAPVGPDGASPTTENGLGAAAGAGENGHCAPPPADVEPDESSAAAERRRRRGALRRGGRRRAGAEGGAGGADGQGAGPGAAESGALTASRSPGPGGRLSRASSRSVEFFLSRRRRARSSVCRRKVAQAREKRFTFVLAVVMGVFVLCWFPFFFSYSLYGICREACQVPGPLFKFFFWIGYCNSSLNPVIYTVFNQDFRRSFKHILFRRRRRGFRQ

[4] = target: Beta-2 adrenergic receptor (Homo sapiens, UniProt P07550); test: DRUGMATRIX: Adrenergic beta2 radioligand binding (ligand: [3H] CGP-12177); type: cell membranes, Membrane; conditions: cho; Not Active = under 50% inhibition at 10 µM
[5] = DRUGMATRIX: Imidazoline I2, Central radioligand binding (ligand: [3H] Idazoxan); type: cell membranes, Rattus norvegicus, Wistar, Cerebral cortex, Membrane; conditions: Not Active = under 50% inhibition at 10 µM
Progesterone receptor = target: T3, Progesterone receptor (Bos taurus, UniProt Q690N0); test: DRUGMATRIX: Progesterone radioligand binding (ligand: [3H] R-5020); type: tissue-based, Uterus; conditions: Not Active = under 50% inhibition at 10 µM
T3 sequence (Q690N0 whole entry): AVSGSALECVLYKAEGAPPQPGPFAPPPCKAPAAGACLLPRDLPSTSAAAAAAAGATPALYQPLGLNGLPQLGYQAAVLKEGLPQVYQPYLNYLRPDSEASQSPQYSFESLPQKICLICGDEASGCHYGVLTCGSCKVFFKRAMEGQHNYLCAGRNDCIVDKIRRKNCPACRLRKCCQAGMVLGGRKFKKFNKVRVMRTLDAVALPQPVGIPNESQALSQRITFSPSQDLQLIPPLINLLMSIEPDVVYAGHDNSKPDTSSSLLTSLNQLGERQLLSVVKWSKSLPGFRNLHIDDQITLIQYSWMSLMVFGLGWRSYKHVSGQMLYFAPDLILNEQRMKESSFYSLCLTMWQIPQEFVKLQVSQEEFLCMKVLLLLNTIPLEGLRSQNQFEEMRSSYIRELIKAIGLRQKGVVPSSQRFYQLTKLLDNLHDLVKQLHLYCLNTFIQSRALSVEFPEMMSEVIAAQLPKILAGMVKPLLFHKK

[6] = target: T4, Alpha-2A adrenergic receptor (Homo sapiens, UniProt P08913); type: cell membranes, Sf9, Membrane; conditions: sf9; further: in other assays of this panel Not Active means under 50% inhibition at 10 µM
T4 sequence (P08913 whole entry): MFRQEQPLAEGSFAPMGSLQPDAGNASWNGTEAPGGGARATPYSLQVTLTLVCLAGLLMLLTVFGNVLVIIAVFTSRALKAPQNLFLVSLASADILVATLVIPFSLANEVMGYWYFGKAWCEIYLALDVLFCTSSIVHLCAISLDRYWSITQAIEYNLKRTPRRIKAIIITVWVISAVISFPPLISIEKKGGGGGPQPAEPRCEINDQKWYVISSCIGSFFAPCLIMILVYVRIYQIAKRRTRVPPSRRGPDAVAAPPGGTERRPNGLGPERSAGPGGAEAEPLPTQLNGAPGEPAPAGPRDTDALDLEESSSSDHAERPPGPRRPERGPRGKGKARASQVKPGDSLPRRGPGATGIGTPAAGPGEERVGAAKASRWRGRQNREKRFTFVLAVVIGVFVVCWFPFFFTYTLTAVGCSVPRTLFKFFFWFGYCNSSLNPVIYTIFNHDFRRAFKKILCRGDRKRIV

[7] = target: Vascular endothelial growth factor receptor 1 (Homo sapiens, UniProt P17948); type: cell-based; conditions: huvec; further: in other assays of this panel Not Active means under 50% inhibition at 10 µM
[8] = target: T5, Neuropeptide Y receptor type 2 (Homo sapiens, UniProt P49146); type: cell membranes, Membrane; conditions: kan-ts; further: in other assays of this panel Not Active means under 50% inhibition at 10 µM
T5 sequence (P49146 whole entry): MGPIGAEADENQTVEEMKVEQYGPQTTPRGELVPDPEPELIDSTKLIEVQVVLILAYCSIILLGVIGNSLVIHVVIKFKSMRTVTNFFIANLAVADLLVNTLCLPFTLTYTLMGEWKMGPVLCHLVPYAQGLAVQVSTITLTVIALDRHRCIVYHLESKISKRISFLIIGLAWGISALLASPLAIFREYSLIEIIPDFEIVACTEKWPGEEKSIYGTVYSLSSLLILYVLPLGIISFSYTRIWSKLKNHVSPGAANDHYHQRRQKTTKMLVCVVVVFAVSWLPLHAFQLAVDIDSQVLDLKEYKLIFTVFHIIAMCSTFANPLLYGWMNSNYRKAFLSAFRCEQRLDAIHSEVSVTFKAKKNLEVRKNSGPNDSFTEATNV

[9] = DRUGMATRIX: GABAA, Muscimol, Central radioligand binding (ligand: [3H] Muscimol); type: cell membranes, Rattus norvegicus, Wistar, Brain, Membrane; conditions: Not Active = under 50% inhibition at 10 µM

Sequence of Vascular endothelial growth factor receptor 1 (P17948 whole entry): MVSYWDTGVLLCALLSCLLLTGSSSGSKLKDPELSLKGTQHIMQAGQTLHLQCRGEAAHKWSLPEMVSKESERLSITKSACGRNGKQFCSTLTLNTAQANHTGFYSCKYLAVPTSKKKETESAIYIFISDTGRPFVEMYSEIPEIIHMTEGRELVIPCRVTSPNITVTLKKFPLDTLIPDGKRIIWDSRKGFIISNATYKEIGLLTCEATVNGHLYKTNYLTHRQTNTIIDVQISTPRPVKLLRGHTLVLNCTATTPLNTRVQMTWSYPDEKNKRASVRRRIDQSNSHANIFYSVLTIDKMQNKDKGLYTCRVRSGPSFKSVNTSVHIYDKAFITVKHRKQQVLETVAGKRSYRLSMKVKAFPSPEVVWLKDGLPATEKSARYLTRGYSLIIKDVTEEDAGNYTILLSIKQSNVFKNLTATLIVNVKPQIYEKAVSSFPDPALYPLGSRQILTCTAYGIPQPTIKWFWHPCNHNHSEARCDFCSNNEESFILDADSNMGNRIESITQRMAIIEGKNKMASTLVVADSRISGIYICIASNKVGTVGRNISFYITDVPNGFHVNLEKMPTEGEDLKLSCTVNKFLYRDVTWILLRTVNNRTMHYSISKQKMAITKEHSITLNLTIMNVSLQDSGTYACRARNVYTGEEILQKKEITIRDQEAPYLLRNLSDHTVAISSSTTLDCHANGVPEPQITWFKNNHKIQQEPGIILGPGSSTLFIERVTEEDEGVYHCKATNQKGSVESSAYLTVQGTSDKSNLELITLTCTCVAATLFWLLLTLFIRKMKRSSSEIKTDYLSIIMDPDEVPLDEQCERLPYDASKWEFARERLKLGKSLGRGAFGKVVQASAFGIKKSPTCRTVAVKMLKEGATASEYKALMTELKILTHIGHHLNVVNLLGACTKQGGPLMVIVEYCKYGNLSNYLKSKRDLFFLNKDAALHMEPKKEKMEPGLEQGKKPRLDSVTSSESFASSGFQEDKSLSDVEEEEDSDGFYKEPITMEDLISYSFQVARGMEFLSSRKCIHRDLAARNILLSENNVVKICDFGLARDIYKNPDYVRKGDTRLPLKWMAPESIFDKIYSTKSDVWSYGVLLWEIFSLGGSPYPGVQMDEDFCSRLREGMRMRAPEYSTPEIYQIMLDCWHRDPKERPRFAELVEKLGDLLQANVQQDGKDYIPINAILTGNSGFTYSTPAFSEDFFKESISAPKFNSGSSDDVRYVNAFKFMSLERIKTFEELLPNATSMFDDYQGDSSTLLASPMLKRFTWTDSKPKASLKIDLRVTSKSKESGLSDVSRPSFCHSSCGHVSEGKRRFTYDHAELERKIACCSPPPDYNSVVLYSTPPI
Sequence of Beta-2 adrenergic receptor (P07550 whole entry): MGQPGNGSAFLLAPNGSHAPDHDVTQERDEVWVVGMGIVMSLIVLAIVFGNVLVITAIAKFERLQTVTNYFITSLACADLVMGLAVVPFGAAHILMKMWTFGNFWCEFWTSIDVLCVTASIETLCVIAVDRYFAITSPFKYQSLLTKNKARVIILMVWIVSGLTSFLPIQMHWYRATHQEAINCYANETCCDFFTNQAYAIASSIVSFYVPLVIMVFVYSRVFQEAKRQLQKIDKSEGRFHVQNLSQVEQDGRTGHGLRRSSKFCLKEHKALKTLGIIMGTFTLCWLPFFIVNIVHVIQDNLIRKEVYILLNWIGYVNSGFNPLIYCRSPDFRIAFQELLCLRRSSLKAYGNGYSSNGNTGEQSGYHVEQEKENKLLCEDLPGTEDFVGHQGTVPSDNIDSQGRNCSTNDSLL

COCCOC(=O)C1=C(C)NC(C)=C(C(=O)OC(C)C)C1c1cccc([N+](=O)[O-])c1 (stereo not given) [NIMODIPINE]
Not Active: IC50 [1] | IC50 [2] | IC50 [3] | IC50 [4] | IC50 [5] | Ki [5] | IC50 (Progesterone receptor) | IC50 [6] | IC50 [7] | IC50 [8] | IC50 [9] | Ki [9]

COCCCOc1ccnc(C[S+]([O-])c2nc3ccccc3[nH]2)c1C (stereo not given) [RABEPRAZOLE]
Not Active: IC50 [1] | IC50 [2] | IC50 [3] | IC50 [4] | IC50 [5] | Ki [5] | IC50 (Progesterone receptor) | IC50 [6] | IC50 [7] | IC50 [8] | IC50 [9] | Ki [9]

CNC(=C[N+](=O)[O-])NCCSCc1ccc(CN(C)C)o1 [RANITIDINE]
Not Active: IC50 [1] | IC50 [2] | IC50 [3] | IC50 [4] | IC50 [5] | Ki [5] | IC50 (Progesterone receptor) | IC50 [6] | IC50 [7] | IC50 [8] | IC50 [9] | Ki [9]

CO[C@H]1/C=C/O[C@@]2(C)Oc3c(C)c(O)c4c(c3C2=O)C2=NC3(CCN(CC(C)C)CC3)NC2=C(NC(=O)/C(C)=C\C=C\[C@H](C)[C@H](O)[C@@H](C)[C@@H](O)[C@@H](C)[C@H](OC(C)=O)[C@@H]1C)C4=O [RIFABUTIN]
Not Active: IC50 [1] | IC50 [2] | IC50 [3] | IC50 [4] | IC50 [5] | Ki [5] | IC50 (Progesterone receptor) | IC50 [6] | IC50 [7] | IC50 [8] | IC50 [9] | Ki [9]

CC(C)c1nc(CN(C)C(=O)N[C@H](C(=O)N[C@@H](Cc2ccccc2)C[C@H](O)[C@H](Cc2ccccc2)NC(=O)OCc2cncs2)C(C)C)cs1 [RITONAVIR]
Not Active: IC50 [1] | IC50 [2] | IC50 [3] | IC50 [4] | IC50 [5] | Ki [5] | IC50 (Progesterone receptor) | IC50 [6] | IC50 [7] | IC50 [8] | IC50 [9] | Ki [9]

CC(C)CC(N(C)C)C1(c2ccc(Cl)cc2)CCC1 (stereo not given) [SIBUTRAMINE]
Not Active: IC50 [1] | IC50 [2] | IC50 [3] | IC50 [4] | IC50 [5] | Ki [5] | IC50 (Progesterone receptor) | IC50 [6] | IC50 [7] | IC50 [8] | IC50 [9] | Ki [9]

[H]/N=C(/N)N[C@H]1[C@H](O)[C@@H](O)[C@H](O[C@@H]2O[C@@H](C)[C@](O)(C=O)[C@H]2O[C@@H]2O[C@@H](CO)[C@H](O)[C@@H](O)[C@@H]2NC)[C@@H](N/C(N)=N\[H])[C@@H]1O [STREPTOMYCIN]
Not Active: IC50 [1] | IC50 [2] | IC50 [3] | IC50 [4] | IC50 [5] | Ki [5] | IC50 (Progesterone receptor) | IC50 [6] | IC50 [7] | IC50 [8] | IC50 [9] | Ki [9]

COc1cc(NS(=O)(=O)c2ccc(N)cc2)nc(OC)n1 [SULFADIMETHOXINE]
Not Active: IC50 [1] | IC50 [2] | IC50 [3] | IC50 [4] | IC50 [5] | Ki [5] | IC50 (Progesterone receptor) | IC50 [6] | IC50 [7] | IC50 [8] | IC50 [9] | Ki [9]

Cc1cc(C)nc(NS(=O)(=O)c2ccc(N)cc2)n1 [SULFAMETHAZINE]
Not Active: IC50 [1] | IC50 [2] | IC50 [3] | IC50 [4] | IC50 [5] | Ki [5] | IC50 (Progesterone receptor) | IC50 [6] | IC50 [7] | IC50 [8] | IC50 [9] | Ki [9]

C[C@]1(Cn2ccnn2)[C@H](C(=O)O)N2C(=O)C[C@H]2S1(=O)=O [TAZOBACTAM]
Not Active: IC50 [1] | IC50 [2] | IC50 [3] | IC50 [4] | IC50 [5] | Ki [5] | IC50 (Progesterone receptor) | IC50 [6] | IC50 [7] | IC50 [8] | IC50 [9] | Ki [9]
